Results published in patent EP2759295A1, “Foam cell specific Liver X Receptor (LXR) alpha agonist, SIRT1 inhibitors as well as p300 inhibitors as pharmaceutically active agents” (Max-Planck-Gesellschaft zur Förderung der Wissenschaften …, priority 2013, dated 2014).
pEC50: −log10 of the molar value.

Legend:
[1] = target: T1, LXRβ ligand binding domain (LBD) (Homo sapiens, UniProt P55055); test: dual luciferase reporter gene assay with LXRβ ligand binding domain in HEK-293 cells; format: cell-based
T1 construct: expressed in transfected cells; host or cells: HEK-293
T1 sequence (P55055 154-460 limits assumed): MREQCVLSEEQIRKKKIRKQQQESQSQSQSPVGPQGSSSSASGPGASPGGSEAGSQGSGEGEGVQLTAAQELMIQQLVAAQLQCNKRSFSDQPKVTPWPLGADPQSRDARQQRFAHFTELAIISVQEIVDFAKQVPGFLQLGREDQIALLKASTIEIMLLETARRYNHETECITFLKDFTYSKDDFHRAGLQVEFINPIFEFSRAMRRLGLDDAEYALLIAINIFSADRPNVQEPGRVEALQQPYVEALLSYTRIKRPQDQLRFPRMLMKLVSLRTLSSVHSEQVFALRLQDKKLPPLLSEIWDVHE
Method: (§1) Selection and amplification were performed in E-coli cells. Purification of the plasmids was performed with a plasmid purification kit (Qiagen). For transfection HEK-293 cells were plated in 96-well plates (TPP) at a density of 3.5 x 10^4 cells/well for 24 h. To investigate the ligand binding on LXRα ligand binding domain, 0.04 ng of renilla luciferase coding plasmide pGL4.75 (Promega), 0.04 ng of LXRα-LBD/GAL4-DBD plasmide and 80 ng of firefly luciferase coding plasmide pGL4.31 (Promega) were used in a total volume of 200 µL for each well. In LXRβ binding assay 40 ng of LXRβ-LBD/GAL4-DBD plasmide were applied in each transfection mix. Transfection was carried out for 4 h with Lipofectamine 2000 Transfection Reagent (Invitrogen) in Opti-MEM medium (Invitrogen). Ligand treatment was performed at different concentrations for 24 h. For lysis and detection dual-luciferase reporter gene assay system (Promega) and POLARstar Omega (BMG LABTECH) were used.

THP-1 macrophages = test: qPCR gene expression of LXRα target genes in THP-1 macrophages; format: cell-based, human
Method: For generating macrophages differentiation was induced by 10^-8 M Phorbol 12-myristate 13-acetate (PMA) (Sigma-Aldrich) for 48 h. Ligand treatment of macrophages was performed for further 24 h. To induce foam cell formation macrophages were treated for additional 48 h with 100 µg/mL modified human oxidized low density lipoprotein (oxLDL) obtained from Source BioScience (RP-048). Ligand treatment was performed simultaneously with foam cell formation. Cholesterol loading and treatment was controlled with Oil Red O staining (Alfa Aeser). To investigate ligand induced effects on cell proliferation of THP-1 macrophages CellTiter-Glo Luminescent Cell Viability Assay (Promega) was utilized.
Total RNA isolation and purification was performed by using the RNeasy Mini Kit (QIAGEN) and RNase-Free DNase Set (QIAGEN). cDNA was generated by reverse transcription using the High Capacity cDNA Reverse Transcription Kit (Applied Biosystems). Gene expression was quantified using the SYBR Green PCR Master Mix (Applied Biosystems) and ABI 7900HT Fast Real Time PCR System (Applied Biosystems). In each reaction 0.8 ng/µL cDNA and 0.2 µM primers were used. Gene expression was calculated with the ΔΔCt-method. β-Actin was used for normalisation.

foam cells [2] = test: triglyceride content in foam cells (Triglyceride Assay Kit); format: cell-based, human; conditions: 10 µM, 48 h
Method: THP-1 monocytes were plated out into 24-well plates (Nunc) at a density of 2 x 10^5 cells/well. After differentiation and treatment cells were lysed with 100 µL lysis buffer (PBS, 0.25 M NaCl, 1% Triton X-100). Total and free cholesterol were determined using the colorimetric enzymatic Amplex Red Cholesterol Assay Kit (Invitrogen). Triglycerides were quantified by Triglyceride Assay Kit (BioVision). For normalisation protein content was determined with Pierce 660 nm Protein Assay Reagent (Thermo Scientific).

[3] = target: T2, LXRα ligand binding domain (LBD) (Homo sapiens, UniProt Q13133); test: dual luciferase reporter gene assay with LXRα ligand binding domain in HEK-293 cells; format: cell-based
T2 construct: expressed in transfected cells; host or cells: HEK-293
T2 sequence (Q13133 164-447): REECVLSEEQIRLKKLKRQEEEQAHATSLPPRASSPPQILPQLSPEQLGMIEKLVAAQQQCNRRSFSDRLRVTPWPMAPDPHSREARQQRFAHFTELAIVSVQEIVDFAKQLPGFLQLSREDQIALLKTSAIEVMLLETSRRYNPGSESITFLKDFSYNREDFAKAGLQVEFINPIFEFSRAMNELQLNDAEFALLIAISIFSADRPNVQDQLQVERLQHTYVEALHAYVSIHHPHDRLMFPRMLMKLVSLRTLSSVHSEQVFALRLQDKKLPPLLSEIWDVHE
Method: as §1, with “The ligand binding domain (LBD) of LXRα (amino acids 164 to 447) or LXRβ (amino acids 154 to 461) was cloned into pBIND [Renilla/Amp] vector (Promega). Selection” for “Selection”

foam cells [4] = test: microarray genome-wide gene expression and GSEA in foam cells; format: cell-based, human; conditions: 10 µM
Method: Microarray analyses were performed according to instructions of Illumina's TotalPrep RNA Amplification Kit followed by hybridisation on HumanHT-12 v3 or HumanHT-12 v4 Expression BeadChips (illumina). Data analysis was performed with GenomeStudio […].1 (illumina). Differential expression analysis was performed on background-subtracted data with cubic spline normalization and Benjamini-Hochberg FDR correction. […] Gene expression data were submitted in MIAME-compliant form to the NCBI Gene Expression Omnibus database (GSE39079). Bead array data were validated by quantitative real-time PCR. The Gene Distance Matrix was conducted in Euclidean space using the MeV 4.3 software tool [[…]. et al. Biotechniques (2003), 34, 374-378]. Gene Set Enrichment Analysis (GSEA) was performed as described elsewhere [Subramanian A. et al. Proc. Natl. Acad. Sci. […] Enrichment of pathways was tested using the Reactome (v3.0) and the KEGG (v3.0) database from the Molecular Signature Database (MSigDB). Heatmaps were carried out with […]. et al. BMC Bioinformatics (2012), 11, 121]. For presentation of treatment effects in the heatmap, the pathway normalized enrichment score (NES) was adjusted with the appropriate FDR as follows: adjustedNES = (1-FDR) x NES.

C(=C\c1ccc(OCC2CO2)cc1)/c1ccccc1 (stereo not drawn) [compound 1, 2-[[4-[(E)-styryl]phenoxy]-methyl]oxirane]
Transcriptional activation of LXRβ [1]: does not activate the LXRβ subtype | expression of LXRα target genes (LXRα, SREBF1, ABCA1, APOE) (THP-1 macrophages; 10 µM): only marginally activated LXR-target genes in macrophages | ABCA1 expression (THP-1 macrophages; in the presence of 1 µM T09): additive effects | triglyceride levels (foam cells [2]): triglyceride levels were not increased | pEC50 ([3]; +DMSO, LXRα reporter gene activation): 7.46 | Efficacy ([3]; +DMSO, reporter gene transcription vs. T09): 6% | specificity LXRα vs. LXRβ ([3]; reporter-gene assays with LXRα and LXRβ LBD): characteristic specificity for LXRα | Lipid metabolism processes (gene set enrichment) (foam cells [4]): comparably up-regulated | triacylglyceride biosynthesis (transcriptional regulation) (foam cells [4]): not regulated
